From US5571833A, “Tryptamine analogues, their synthesis and their use as 5-HT1 -like or 5-HT2 receptor agonists” (SmithKline Beecham plc, priority 1991, dated 1996) come the findings set out here.

Structures can show the parent of a compound that is named as a salt.

Test [1] concerns the target T1, rabbit basilar artery (5-HT1-like receptor) (Oryctolagus cuniculus, UniProt P49144).
T1 construct: from tissue; host or cells: rabbit basilar artery, endothelium removed (ring segments)
As to the kind of experiment: Rabbit Basilar Artery (isometric tension of isolated ring segments). The test is classed as cell-based. The procedure:
Experiments were performed in intracranial arteries from rabbit isolated basilar artery in a similar method to one described previously (Parsons and Whalley, 1989. Eur J Pharmacol 174, 189-196.).
In brief, rabbits were killed by overdose with anaesthetic (sodium pentobarbitone). The whole brain was quickly removed and immersed in ice cold modified Kreb's solution and the basilar artery removed with the aid of a dissecting microscope. The Krebs solution was of the following composition (mM) Na^+ (120); K^+ (5); Ca^2+ (2.25); Mg^2+ (0.5); Cl^- (98.5); SO4^2^- (1); EDTA (0.04), equilibrated with 95% O2 /5% CO2. The endothelium was removed by a gentle rubbing of the lumen with a fine metal wire. Arteries were then cut into ring segments (ca 4-5 mm wide) and set up for recording of isometric tension in 50 ml tissue baths in modified Krebs solution with the additional supplement of (mM); […] (20); fumarate (10); pyruvate (5); L-glutamate (5) and glucose (10). The arteries were then placed under a resting force of 3-4 mN maintained at 37° C. and the solution bubbled with 95% O2 /5% CO2.
After tests for initial reactivity with 90 mM KCl depolarising solution and for lack of acetylcholine-induced relaxation of 5-HT ([…]) precontraction, cumulative concentration-effect curves ([…]) to 5-HT were constructed in the presence of ascorbate […], cocaine […], indomethacin […], ketanserin […] and prazosin […].
Following a 45-60 min wash period, cumulative concentration-effect curves to the test compounds or 5-HT (as a time match control) were constructed in the presence of ascorbate, indomethacin, cocaine, ketanserin and prazosin.

Test [2] deals with T2, 5-HT1-like receptor (dog saphenous vein) (Canis lupus familiaris, UniProt P79250).
T2 construct: Helicoids of dog saphenous vein were set up; from tissue; host or cells: dog saphenous vein (helicoids)
As to the kind of experiment: 5-HT1-Like Receptor Screen, Dog Saphenous Vein (contraction of helicoids). The test is classed as cell-based. The procedure:
5-HT1 -Like Receptor Screen
Helicoids of dog saphenous vein were set up at 37° C. in modified Krebs solution at a resting force of 10 mN. The solution also contained 1 μmol/l each of ketanserin, prazosin, atropine and mepyramine, 6 μmol/l cocaine and 200 μmol/l ascorbate. Nearly […] contractions were measured with force transducers on a polygraph. The tissues were exposed twice to 5-hydroxytryptamine (5-HT) 2 μmol/l followed by washes. A cumulative concentration-effect curve to the test compound was determined, followed by a curve to 5-HT in the presence of the highest used concentration of test compound. Contractions caused by the test compound were compared with those caused by 5-HT. The intrinsic activity of the test compound was calculated as the ratio of the maximum test compound-induced effect over the effect caused by 2 μmol/l 5-HT. The EC50 of the test compound was estimated from the corresponding effect curve. When appropriate equilibrium dissociation constants Kp were estimated by the method of Marano & Kaumann (1976, J. Pharmacol. Exp. Ther. 198, 518-525).

T2 sequence (P79250 whole entry): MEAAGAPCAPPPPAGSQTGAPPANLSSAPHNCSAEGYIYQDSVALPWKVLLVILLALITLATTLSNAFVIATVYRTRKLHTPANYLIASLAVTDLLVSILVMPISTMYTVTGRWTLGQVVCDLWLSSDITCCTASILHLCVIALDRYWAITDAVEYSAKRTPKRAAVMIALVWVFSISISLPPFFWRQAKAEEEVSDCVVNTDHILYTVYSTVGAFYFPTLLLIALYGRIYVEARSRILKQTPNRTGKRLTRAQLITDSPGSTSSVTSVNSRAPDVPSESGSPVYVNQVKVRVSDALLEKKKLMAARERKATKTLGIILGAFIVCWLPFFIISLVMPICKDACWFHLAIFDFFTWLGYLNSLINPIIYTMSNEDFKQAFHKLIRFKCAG
T1 sequence (P49144 whole entry): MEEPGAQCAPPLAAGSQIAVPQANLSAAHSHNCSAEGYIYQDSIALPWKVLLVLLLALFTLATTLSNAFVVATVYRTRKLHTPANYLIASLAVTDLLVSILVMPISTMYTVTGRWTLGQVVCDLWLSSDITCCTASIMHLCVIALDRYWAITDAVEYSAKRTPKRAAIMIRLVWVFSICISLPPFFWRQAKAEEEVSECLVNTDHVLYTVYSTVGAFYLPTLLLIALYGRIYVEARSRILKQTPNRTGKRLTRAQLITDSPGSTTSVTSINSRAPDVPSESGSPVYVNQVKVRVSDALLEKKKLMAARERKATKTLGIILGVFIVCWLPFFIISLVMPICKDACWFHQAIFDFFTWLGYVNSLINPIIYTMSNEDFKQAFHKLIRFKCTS

For the compound `CCCOc1ccc2[nH]cc(CCN(C)C)c2c1Cl` [3(i), 3-(2-Dimethylaminoethyl)-4-chloro-5-n-propyloxy-indole fumarate], the EC50 (commonly the concentration that produces a half-maximal response) was in the range of 170 to 1100 nM in test [1] and 200 to 15000 nM in test [2].
For `COc1ccc2[nH]cc(CCN(C)C)c2c1Cl` [6(i), 3-(2-Dimethylaminoethyl)-4-chloro-5-methoxyindole fumarate], in that order: 170 to 1100 nM and 200 to 15000 nM.
Take `NCCc1c[nH]c2ccc(OCc3ccccc3)c(Cl)c12` [Example 1, 3-(2-amino-ethyl)-4-chloro-5-benzyloxyindole hydrochloride]: in test [2], the EC50 was 200 to 15000 nM.
With `NCCc1c[nH]c2ccc(O)c(Cl)c12` [Example 2, 3-(2-Aminoethyl)-4-chloro-5-hydroxyindole fumarate], the EC50 fell in the range of 170 to 1100 nM in test [1] and 200 to 15000 nM in test [2].
With `CCCOc1ccc2[nH]cc(CCN)c2c1Cl` [Example 3(ii), 3-(2-aminoethyl)-4-chloro-5-n-propyloxyindole fumarate], the 50% effective concentration (EC50) in test [2] is 200 to 15000 nM.
In test [1], `CN(C)CCc1c[nH]c2ccc(OCc3ccccc3)c(Cl)c12` [Example 4, 3-(2-Dimethylaminoethyl)-4-chloro-5-benzyloxyindole hydrochloride] had an EC50 of 170 to 1100 nM.
Take `CN(C)CCc1c[nH]c2ccc(O)c(Cl)c12` [Example 5, 3-(2-Dimethylaminoethyl)-4-chloro-5-hydroxyindole oxalate]: the results for the concentration giving a half-maximal response (EC50) in test [1] and in test [2] were 170 to 1100 nM and 200 to 15000 nM, respectively.
In the case of `COc1ccc2[nH]cc(CCN)c2c1Cl` [Example 6(ii), 3-(2-aminoethyl)-4-chloro-5-methoxyindole fumarate], in test [2], the EC50 was in the range of 200 to 15000 nM.
Same read-out and setting: to `COc1ccc2[nH]cc(CCN(C)C)c2c1Br` [Example 7, 3-(2-Dimethylaminoethyl)-4-bromo-5-methoxyindole hemifumarate] belongs 200 to 15000 nM; to `CCCNCCc1c[nH]c2ccc(OC)c(Cl)c12` [Example 8, 3-(2-n-Propylaminoethyl)-4-chloro-5-methoxyindole fumarate], 200 to 15000 nM; to `CNCCc1c[nH]c2ccc(OC)c(Cl)c12` [Example 9, 3-(2-Methylaminoethyl)-4-chloro-5-methoxyindole hemifumarate], 200 to 15000 nM.
As to `CCCCOc1ccc2[nH]cc(CCN(C)C)c2c1Cl` [Example 11, 3-(2-Dimethylaminoethyl)-4-chloro-5-n-butyloxyindole hemifumarate], the EC50 fell in the range of 170 to 1100 nM in test [1] and 200 to 15000 nM in test [2].
`CCCOc1ccc2[nH]cc(CCNC)c2c1Cl` [Example 13, 3-(2-Methylaminoethyl)-4-chloro-5-n-propoxyindole hemifumarate] showed an EC50 in test [2] of 200 to 15000 nM.
Regarding `CCCOc1ccc2[nH]cc(CCN(C)C)c2c1Br` [Example 14, 3-(2-Dimethylaminoethyl)-4-bromo-5-n-propoxyindole hemifumarate], the 50% effective concentration (EC50) in test [1] was in the range of 170 to 1100 nM; in test [2], 200 to 15000 nM.
`CC(C)Oc1ccc2[nH]cc(CCN)c2c1Cl` [Example 15, 3-(2-Aminoethyl)-4-chloro-5-iso-propoxyindole fumarate] gave an EC50 in test [2] of 200 to 15000 nM.
The same measure, in the same setting: to `CCCOc1ccc2[nH]cc(CCN)c2c1Br` [Example 16, 3-(2-Aminoethyl)-4-bromo-5-n-propoxyindole oxalate] belongs 200 to 15000 nM; to `CC(C)Oc1ccc2[nH]cc(CCN(C)C)c2c1Cl` [Example 17, 3-(2-Dimethylaminoethyl)-4-chloro-5-isopropoxyindole oxalate], 200 to 15000 nM.
On to `CCCOc1ccc2[nH]cc(CCN)c2c1C` [Example 18b, 3-(2-aminoethyl)-4-methyl-5-n-propyloxyindole oxalate], for which the EC50 in test [1] was in the range of 170 to 1100 nM.
On to `CCCOc1ccc2[nH]cc(CCN(C)CC)c2c1Cl` [Example 19, 3-(2-(N-methyl-N-ethylamino)ethyl)-4-chloro-5-n-propyloxyindole oxalate], for which the EC50 in test [1] was in the range of 170 to 1100 nM.
Regarding `CCCOc1ccc2[nH]cc(CCN(C)C)c2c1I` [Example 20, 3-(2-(Dimethylamino)ethyl)-4-iodo-5-n-propyloxy indole oxalate], the half-maximal effective concentration (EC50) in test [1] was in the range of 170 to 1100 nM.
Take `CN(C)CCc1c[nH]c2ccc(OCC(C)(C)C)c(Cl)c12` [Example 22, 3-(2-(Dimethylamino)ethyl)-4-chloro-5-neopentyloxy indole oxalate]: the concentration for a half-maximal effect (EC50) in test [1] lay in the range of 170 to 1100 nM.
